The text below walks through data of patent EP4755878A1, “PHOTOCHROMIC COMPOUND, PHENOL DERIVATIVE, CURABLE COMPOSITION, OPTICAL ARTICLE, LENS, AND EYEGLASS” (TOKUYAMA CORPORATION, priority 2023, dated 2025).

SMILES strings stand for the structures.

The data set can be described thus: Photochromic properties of photochromic laminate (plastic lens) made by coating method. Type of data set: physicochemical. The conditions noted are these: for Color developing density at 23°C: absorbance difference after 240 seconds irradiation at 23°C; for Color developing density at 35°C: absorbance difference after 240 seconds irradiation at 35°C; for Maximum absorption wavelength: after color development, second absorption wavelength (lower line of pair). An excerpt:
First, the photochromic compound obtained in Example 1 above, a photoinitiator, and polymerizable compounds were mixed to obtain a curable composition.
As the polymerizable compounds, a blend of the following radically-polymerizable monomers in combination was used.
• Polyethylene glycol dimethacrylate (average molecular weight: 736): 42 parts by mass • Polyethylene glycol dimethacrylate (average molecular weight: 536): 12 parts by mass • Trimethylolpropane trimethacrylate: 38 parts by mass • γ-Methacryloyloxypropyltrimethoxysilane: 2 parts by mass • Glycidyl methacrylate: 1 part by mass.
Note that in the curable composition, the photochromic compound obtained in Example 1 above was added to be 0.25 mmol taking the total amount of the radically-polymerizable monomers as 100 g. The following were used as additives.
(stabilizer, Irganox 245): 1 part by mass Bis(1,2,2,6,6-pentamethyl-4-piperidyl) sebacate: 3 parts by mass Leveling agent from DuPont Toray Specialty Materials K.K. (L7001): 0.1 parts by mass.
Note that the above-mentioned additives are described with blending ratios taking a total of the radically-polymerizable monomers as 100 parts by mass.
Using this curable composition, a photochromic laminate was obtained by a lamination process described below with the polymerization described below being carried out.
First, a thiourethane plastic lens with a center thickness of 2 mm and a refractive index of 1.60 was prepared as an optical substrate. Note that the thiourethane plastic lens had been alkaline-etched beforehand in a 10% aqueous sodium hydroxide solution at 50°C for 5 minutes, and then thoroughly washed with distilled water.
A spin coater (1H-DX2, manufactured by MIKASA CO., LTD) was used to coat a surface of the above-mentioned plastic lens with a moisture-curable primer (product name: TR-SC-P, manufactured by Tokuyama Corporation) at a rotation speed of 70 rpm for 15 seconds, followed by at 1000 rpm for 10 seconds. Then, about 2 g of the photochromic curable composition obtained as above was spin-coated at a rotation speed of 60 rpm for 40 seconds, followed by at 600 rpm for 10 to 20 seconds so as to achieve a photochromic coating layer with a film thickness of 40 µm.
The lens having the surface coated with the photochromic curable composition (photochromic coating layer) was irradiated with light for 90 seconds in a nitrogen gas atmosphere using a metal halide lamp with an output of 200 mW/cm^2 to cure the coating film. The coating was then further heated at 110°C for 1 hour to produce a photochromic laminate with a photochromic layer.
Photochromic laminates were produced using the photochromic compounds obtained in Examples 2 to 19 in the same manner as in Example 20.
Photochromic laminates were obtained in the same manner as in Example 20 using photochromic compounds represented by the following formulas (A) to (F). [drawing 143] [drawing 144] [drawing 145] [drawing 146] [drawing 147] [drawing 148] [drawing 149] [drawing 150]
The resulting photochromic laminates were evaluated by the methods described below.
Table 3 summarizes the results of Examples 20, 32, and 34, and Comparative Examples 1 to 6, and Table 4 summarizes the results of Examples 21 to 31, 33, and 35 to 38. The relationship between the fading half-life at 23°C and the color development ratio at the higher temperature of the photochromic laminates according to Examples and Comparative Examples are shown in a graph in FIG. 1.
Photochromic laminates were formed using the photochromic compound obtained in Examples 61 to 71 in the same manner as in Example 20.

`CCCOc1ccc(C2(c3ccc(OCCC)cc3)C=Cc3c4c(c5ccc(-c6ccc(OC)cc6OC)cc5c3O2)-c2ccc(N(C)c3ccc(F)cc3)cc2C4(CC)CC)cc1` [Formula (5-4)]: the Maximum absorption wavelength is given as 596 nm. Besides, under “first absorption wavelength”, the “Color developing density at 23°C” value was 0.72 - and the “Color developing density at 35°C” value is recorded as 0.53 -. Further, where the note is “second absorption wavelength”, the “Color developing density at 23°C” value is on record as 1.18 - and the “Color developing density at 35°C” value is listed as 0.88 -.
As to `CCCCCCOc1ccc(C2(c3ccc(OCCCCCC)cc3)C=Cc3c4c(c5ccc(OC(F)(F)F)cc5c3O2)-c2ccc(N(C)c3ccc(C(F)(F)F)cc3)cc2C42CCC(CC)(CC)CC2)cc1` [Formula (6-3)], the Maximum absorption wavelength was 598 nm. For the same molecule, under “first absorption wavelength”, the “Color developing density at 23°C” value was 0.37 - and the “Color developing density at 35°C” value was 0.22 -. Also, for the setting “second absorption wavelength”, the “Color developing density at 23°C” value is recorded as 0.77 - and the “Color developing density at 35°C” value is on record as 0.46 -.
As to `COCCN(c1ccccc1)c1ccc2c(c1)C(CCOC)(CCOC)c1c3c(c4cc(C)c(N5CCOCC5)cc4c1-2)OC(c1ccc(OC)cc1)(c1ccc(OC)cc1)C=C3` [Formula (10-3)], the Maximum absorption wavelength is 594 nm. Moreover, for the setting “first absorption wavelength”, the “Color developing density at 23°C” value is reported as 1.24 - and the “Color developing density at 35°C” value is given as 0.83 -. Where the note is “second absorption wavelength”, the “Color developing density at 23°C” value is recorded as 1.01 - and the “Color developing density at 35°C” value was 0.68 -.
The matching figures for `COc1ccc(C2(c3ccc(N4CCOCC4)cc3)C=Cc3c4c(c5cc(Sc6c(C)cccc6C)c(OC)cc5c3O2)-c2ccc(N3CCOc5cc(F)ccc53)cc2C42CC(C)(C)CC(C)(C)C2)cc1` (centres unmarked) [Formula (11-4)]: 620 nm, 0.51 -, 0.31 -, 0.51 - and 0.30 -.
Regarding `COc1ccc2c3c(c4c(c2c1)OC(c1ccc(F)cc1)(c1ccc(N2CCOCC2)cc1)C=C4)C(CCC(F)(F)F)(CCC(F)(F)F)c1cc(N(C)c2ccc(C)cc2)ccc1-3` (centres unmarked) [Formula (14-3)], the Maximum absorption wavelength is 628 nm. For the same molecule, where the note is “first absorption wavelength”, the “Color developing density at 23°C” value was 0.73 - and the “Color developing density at 35°C” value is 0.51 -. Moreover, for the setting “second absorption wavelength”, the “Color developing density at 23°C” value is listed as 1.13 - and the “Color developing density at 35°C” value is reported as 0.80 -.
The matching figures for `CCCC1(CCC)c2cc(N3CCCc4ccccc43)ccc2-c2c1c1c(c3cc(OC)ccc23)OC(c2ccc(OC)cc2)(c2ccc(OCCCO)cc2)C=C1` (centres unmarked) [Formula (17-3)]: 613 nm, 0.85 -, 0.61 -, 0.96 - and 0.70 -.
The like results for `CCC1(CC)c2cc(N3CCOc4ccccc43)ccc2-c2c1c1c(c3cc(OC)ccc23)OC(c2ccc(OCCOC(=O)CCCCCCCCC(=O)OCCOc3ccc(C4(c5ccc(N6CCOCC6)cc5)C=Cc5c6c(c7ccc(OC)cc7c5O4)-c4ccc(N5CCOc7ccccc75)cc4C6(CC)CC)cc3)cc2)(c2ccc(N3CCOCC3)cc2)C=C1` (centres unmarked) [Formula (19-3)] were, in that order, 629 nm, 0.55 -, 0.34 -, 0.88 - and 0.57 -.
The like results for `CCCOc1ccc(C2(c3ccc(OCCC)cc3)C=Cc3c4c(c5cc(N(C)c6ccccc6)c(OC)cc5c3O2)-c2ccc(N(C)c3ccccc3)cc2C4(CCC)CCC)cc1` [Formula (61-4)] were, in that order, 619 nm, 1.37 -, 1.03 -, 0.88 - and 0.64 -.
For the molecule `COCCOCCOCCC1(CCOCCOCCOC)c2cc(N(c3ccccc3)c3ccccc3)ccc2-c2c1c1c(c3cc(OC)c(-c4c(OC)cc(OC)cc4OC)cc23)OC(c2ccc(OC)cc2)(c2ccc(OC)cc2)C=C1` [Formula (62-5)], the Maximum absorption wavelength turned out to be 625 nm. Where the note is “first absorption wavelength”, the “Color developing density at 23°C” value is given as 1.20 - and the “Color developing density at 35°C” value is 0.88 -. Moreover, under “second absorption wavelength”, the “Color developing density at 23°C” value is given as 0.90 - and the “Color developing density at 35°C” value is reported as 0.66 -.
Turning to `CCCCOc1ccc(C2(c3ccc(OC)cc3)C=Cc3c4c(c5cc(-c6ccc(C(F)(F)F)cc6)c(OC)cc5c3O2)-c2ccc(N(C)c3ccccc3)cc2C4(CCC)CCC)cc1` (centres unmarked) [Formula (63-2)], the Maximum absorption wavelength was 626 nm. For the same molecule, where the note is “first absorption wavelength”, the “Color developing density at 23°C” value is on record as 0.71 - and the “Color developing density at 35°C” value is 0.50 -. Under “second absorption wavelength”, the “Color developing density at 23°C” value is 0.80 - and the “Color developing density at 35°C” value is recorded as 0.57 -.
The like results for `CCCCCCOc1ccc(C2(c3ccc(OCCCCCC)cc3)C=Cc3c4c(c5cc(N6CCC(C(F)(F)F)CC6)c(OC)cc5c3O2)-c2ccc(N(c3ccccc3)c3ccccc3)cc2C42CCC3(CCCCC3)CC2)cc1` [Formula (64-3)] were, in that order, 611 nm, 1.94 -, 1.38 -, 0.92 - and 0.67 -.
The matching figures for `CCCCOCCC1(CCOCCCC)c2cc(N(c3ccccc3)c3ccccc3)ccc2-c2c1c1c(c3cc(OC)c(N(C)c4ccc(C(F)(F)F)cc4)cc23)OC(c2ccc(OC)cc2)(c2ccc(OCCC)cc2)C=C1` (centres unmarked) [Formula (65-2)]: 623 nm, 0.85 -, 0.57 -, 0.77 - and 0.53 -.
The like results for `CCCCCC1(CCCCC)c2cc(N3CCOc4ccccc43)ccc2-c2c1c1c(c3cc(OC)c(-c4ccc(N5CCOc6ccccc65)cc4)cc23)OC(c2ccc(OC)cc2)(c2ccc(OC)cc2)C=C1` [Formula (66-5)] were, in that order, 602 nm, 1.37 -, 1.09 -, 1.03 - and 0.82 -.
`CCC1(CC)c2cc(N(C)c3ccccc3)ccc2-c2c1c1c(c3cc(OC)c(-c4ccc(OC)cc4OC)cc23)OC(c2ccc(OC)cc2)(c2ccc(N3CCOCC3)cc2)C=C1` (centres unmarked) [Formula (67-2)]: the Maximum absorption wavelength amounted to 639 nm. Moreover, where the note is “first absorption wavelength”, the “Color developing density at 23°C” value is 0.84 - and the “Color developing density at 35°C” value was 0.60 -. Under “second absorption wavelength”, the “Color developing density at 23°C” value is 1.00 - and the “Color developing density at 35°C” value was 0.72 -.
The like results for `CCCCOCCC1(CCOCCCC)c2cc(N(c3ccccc3)c3ccc(C)cc3)ccc2-c2c1c1c(c3cc(OC)c(OC)cc23)OC(c2ccc(OC)cc2)(c2ccc(N3CCOCC3)cc2)C=C1` (centres unmarked) [Formula (68-2)] were, in that order, 636 nm, 0.79 -, 0.51 -, 0.73 - and 0.47 -.
The like results for `COCCCC1(CCCOC)c2cc(N(c3ccccc3)c3ccccc3)ccc2-c2c1c1c(c3cc(OC)c(N4CCOCC4)cc23)OC(c2ccc(C)cc2)(c2ccc(N(C)c3ccccc3)cc2)C=C1` (centres unmarked) [Formula (69-2)] were, in that order, 640 nm, 1.76 -, 1.32 -, 1.28 - and 0.96 -.
